Test results taken from patent publication US7220822B2, “CD28 mimetics for blocking T cell mediated immune reactions” (The Ohio State University, priority 2000, dated 2007).
Read-outs that look alike come from different tables or passages of the source. Square brackets hold non-standard residues; d marks the D form. Peptide text beside a SMILES is read from it.

Experiments:
[1] = target: T1, CD80-Ig (Homo sapiens, UniProt P33681); assay: Direct kinetic analysis of CD28 peptide binding to immobilized CD80-Ig by surface plasmon resonance (BIACORE); conditions: for maximum response units obtained for binding to CD80-Ig: SPR direct binding; for kd: direct binding; for kon: pH 7.4, direct binding, read-out: ka
T1 construct: extracellular domain of CD80 fused with the constant region of mouse IgG1 heavy chain
T1 sequence (P33681 35-242 limits assumed, other chains not shown): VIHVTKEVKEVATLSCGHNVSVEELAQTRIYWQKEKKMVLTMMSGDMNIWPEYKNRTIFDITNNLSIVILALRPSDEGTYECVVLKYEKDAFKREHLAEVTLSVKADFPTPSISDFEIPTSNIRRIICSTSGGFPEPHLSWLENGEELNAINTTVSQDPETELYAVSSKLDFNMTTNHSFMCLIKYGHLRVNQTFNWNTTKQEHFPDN
Method: Binding experiments were performed by surface plasmon resonance (SPR) on an instrument sold under the trademark BIACORE™ from Pharmacia Biosensor (Uppasala, Sweden).
CD80-Ig (extracellular domain of CD80 fused with the constant region of mouse IgG1 heavy chain) at 35 μg/ml in 10 mM sodium acetate buffer, pH 4.2, was coupled to a research grade CM 5 sensor chip using a standard amine coupling procedure with the following modifications (38). To reduce the immobilization level of the ligand, the surface was activated for 3 (instead of 7) minutes with N-hydroxysuccinamide and […]. […] Following coupling, noncovalently bound ligand was removed by washing twice with 5 mM NaOH.
The analytes were also injected at the same concentration and injection times over an empty flow cell with nothing immobilized.
Data analysis was performed with BIAEVALUATION™ software version 2.1(Pharmacia Biosensor AB). […] Prior to kinetic analysis, data were adjusted to zero baseline level by subtracting the background responses obtained by injection of the analytes through a control flow cell with no ligand immobilized. First, the dissociation rate constant, kd, (units: s^−1) was determined, by fitting experimental data from the buffer flow part of the sensogram to the equation R(t)=R1*e^−kd*(t^0^−t^1^) (1) where t0 is the injection time, R1 is the response level at the start of dissociation time t1 and kd is the dissociation rate constant.
The kd value obtained was used as a constant during the analysis of the injection phase data. Binding data above the noise level was selected by converting the sensogram to a plot of the logarithm of the binding rate vs time (dR/dt vs. time). The ka was determined by nonlinear curve fitting of the following equation R(t)=Req*{1−e^−(k^a^*C+k^d^)*(t) (2) where R(t) is the response at time t, Req is the steady state response level, ka is the association rate constant (units: M^−1s^−1), kd is the dissociation rate constant and C is the concentration of the injected peptide analyte. An offset was added to account for the refractive index differences between the analyte and the running buffer.
After analyzing sensograms obtained from injections of increasing concentrations of peptide analytes or CD28-Ig, the experimental data was analyzed using the BIAsimulation software 2.1. A plot of the logarithm of (dR/dt) against time was calculated from the sensograms, and then the slopes at different concentrations were plotted against the concentrations of the peptide analyte. Different angles obtained of the linear lines represent the variation of affinities, which gives the association rate constant (ka) from the equation ln dR/dt=ln(kaCR max)−KaC+kd)t (4) where dR/dt is the rate of change of the SPR signal, C is the concentration of the analyte, Rmax is the maximum analyte binding capacity in RU and R is the SPR signal in RU at time t. The dissociation rate constant is obtained from the equation Kd=kd/ka (5)

[2] = test system: CD4+ lymphocytes of immunized mice; assay: Apoptosis of CD4+ T cells in peptide-treated EAE mice (enzymatic labeling of nicked ends); format: in vivo, mouse; conditions: mice treated on the day of immunization
Method: This was done by quantifying the DNA strand breaks in CD4+ lymphocytes detected by enzymatic labeling of nicked ends. Cells incubated in DNAse served as positive control.

[3] = test system: CD4+ splenocytes from Vα4/Vβ8.2 TCR transgenic mice; format: cell-based, mouse; conditions: 72 h
Method: The in vitro effect of varying concentration of the CD 28 peptide mimetics on CD4+ lymph node cells and spleen cells from transgenic mice bearing the Vα 4 Vβ8.2 TCR specific for MBP Ac 1-11 was determined.
CD4+ T cells were purified from pooled peripheral lymph nodes (inguinal, axillary, brachial, cervical, popliteal), and mesenteric lymph nodes and spleen of 6–8 wk old Vα4/Vβ8.2 TCR transgenic mice by positive selection. Single cell suspensions were prepared by lympholyte M gradient, washed, counted and incubated with magnetic bead conjugated anti-mouse CD4 (L3T4) (Miltenyi Biotech Corporation) followed by positive selection using magnetic selection columns. Purity of the CD4^+ cells was greater than 90% as assessed by staining with FITC labeled anti-mouseVβ8.2 mAb (Pharmingen). During the selection process, T cells maintain a naïve phenotype with no evidence for T cell activation as measured by proliferation in culture. Purified CD4+ T-cells (5×10^4 cells/well) were cultured together with wild type splenocytes from B10.PL mice as APC's (10^5 cells/well) in RPMI 1640 containing 10% FCS, 25 mM HEPES, 2 mM L-glutamine, 50 U/ml penicillin, 50 μg/ml streptomycin, and 5×10–5 M 2-ME in round-bottom 96-well plates and MBP (40 μg/ml) or MBP NAc1-11 (10 μg/ml) or media only in the presence or absence of synthetic CD28 peptide analogues at different concentrations in triplicate wells for 72 h, including a final 18-h pulse with [^3H] thymidine. Cultures were harvested onto glass-fiber mats using a Skatron harvester (Skatron, Sterling, Va.) and were counted by liquid scintillation on LKB Betaplate (LKB, Rockville, Md.). The means of the triplicate were determined and the results are expressed as delta cpm (mean counts per minute of cultures with Ag-mean counts per minute of cultures with medium alone)±SD.

Row | SMILES | maximum response units obtained for binding to CD80-Ig [1] [RU] | kd ([1]; C 1.50E+03 nM) [s⁻¹] | kd ([1]; C 3.00E+03 nM) [s⁻¹] | kd ([1]; C 3.75E+02 nM) [s⁻¹] | kd ([1]; C 6.00E+03 nM) [s⁻¹] | kd ([1]; C 7.50E+02 nM) [s⁻¹] | kon ([1]; C 1.50E+03 nM) [M⁻¹ s⁻¹] | kon ([1]; C 3.00E+03 nM) [M⁻¹ s⁻¹] | kon ([1]; C 3.75E+02 nM) [M⁻¹ s⁻¹] | kon ([1]; C 6.00E+03 nM) [M⁻¹ s⁻¹] | kon ([1]; C 7.50E+02 nM) [M⁻¹ s⁻¹] | kd ([1]; C 1.00E+03 nM) [s⁻¹] | kon ([1]; C 1.00E+03 nM) [M⁻¹ s⁻¹] | percentage of apoptotic CD4+ T cells [2] [%] | maximum inhibition of proliferative response [3] [%]
1 | CC[C@H](C)[C@H](NC(=O)[C@@H](NC(=O)CNC(=O)[C@H](CC(N)=O)NC(=O)[C@H](CO)NC(=O)[C@H](CCCNC(=N)N)NC(=O)[C@H](CCC(=O)O)NC(=O)[C@H](CC(N)=O)NC(=O)[C@H](CC(=O)O)NC(=O)[C@H](CC(C)C)NC(=O)[C@H](Cc1ccc(O)cc1)NC(=O)[C@@H]1CCCN1C(=O)[C@@H]1CCCN1C(=O)[C@@H]1CCCN1C(=O)[C@H](Cc1ccc(O)cc1)NC(=O)[C@H](CCSC)NC(=O)[C@H](Cc1ccccc1)NC(=O)[C@H](CCC(=O)O)NC(=O)[C@@H](NC(=O)[C@H](CCCCN)NC(C)=O)[C@@H](C)CC)[C@@H](C)O)C(N)=O [EL CD28] (Ac-KIEFMYPPPYLDNERSNGTI-NH2) | 667.5 | 0.242 | 0.214 | 0.399 | 0.273 | 0.274 | 115000 | 137000 | 246000 | 111000 | 110000 | – | – | – | –
2 | CC[C@@H](C)[C@@H](NC(C)=O)C(=O)N[C@@H](C(=O)NCC(=O)N[C@H](CC(N)=O)C(=O)N[C@H](CO)C(=O)N[C@H](CCCNC(=N)N)C(=O)N[C@H](CCC(=O)O)C(=O)N[C@H](CC(N)=O)C(=O)N[C@H](CC(=O)O)C(=O)N[C@H](CC(C)C)C(=O)N[C@H](Cc1ccc(O)cc1)C(=O)N1CCC[C@@H]1C(=O)N1CCC[C@@H]1C(=O)N1CCC[C@@H]1C(=O)N[C@H](Cc1ccc(O)cc1)C(=O)N[C@H](CCSC)C(=O)N[C@H](Cc1ccccc1)C(=O)N[C@H](CCC(=O)O)C(=O)N[C@@H](C(=O)N[C@H](CCCCN)C(N)=O)[C@H](C)CC)[C@H](C)O [RI CD28] (Ac-[dI][dT]G[dN][dS][dR][dE][dN][dD][dL][dY][dP][dP][dP][dY][dM][dF][dE][dI][dK]-NH2) | 444.2 | 0.183 | 0.146 | – | 0.228 | – | 141000 | 122000 | – | 112000 | – | 0.205 | 171000 | 16 | 42
